Measured values: ChEMBL document CHEMBL1143462, “The discovery of fluoropyridine-based inhibitors of the Factor VIIa/TF complex” (Bioorg Med Chem Lett, 2005)

Tests used:
Coagulation factor X = Coagulation factor X (Homo sapiens, UniProt P00742); experiment: Inhibitory concentration against human coagulation factor Xa
[1] = biological target: Coagulation factor VII/tissue factor (Homo sapiens, UniProt P08709); experiment: Inhibitory concentration against human coagulation factor VIIa/tissue factor cleavage of fluorogenic substrate SN17c at 37 degree C for 15 minutes; format: protein-complex assay
[2] = In vitro inhibitory activity against prolonging prothrombin time as anticoagulant effect on extrinsic coagulation pathway; format: functional; conditions: Homo sapiens

Coagulation factor VII/tissue factor, sequence (P08709 61-212 limits assumed): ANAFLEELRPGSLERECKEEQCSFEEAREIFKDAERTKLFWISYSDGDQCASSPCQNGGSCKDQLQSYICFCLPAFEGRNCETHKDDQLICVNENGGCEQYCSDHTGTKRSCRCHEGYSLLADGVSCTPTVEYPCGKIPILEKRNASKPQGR
Coagulation factor VII/tissue factor, sequence (P08709 213-466 limits assumed): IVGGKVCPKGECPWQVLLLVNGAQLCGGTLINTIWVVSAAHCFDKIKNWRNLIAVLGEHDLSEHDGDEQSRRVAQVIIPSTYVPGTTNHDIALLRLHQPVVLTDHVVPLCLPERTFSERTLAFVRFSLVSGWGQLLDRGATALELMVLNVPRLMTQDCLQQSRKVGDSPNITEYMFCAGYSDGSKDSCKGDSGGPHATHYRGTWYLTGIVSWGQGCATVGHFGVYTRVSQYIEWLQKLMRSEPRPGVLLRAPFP
Coagulation factor VII/tissue factor, sequence (P13726 33-295 partner limits assumed): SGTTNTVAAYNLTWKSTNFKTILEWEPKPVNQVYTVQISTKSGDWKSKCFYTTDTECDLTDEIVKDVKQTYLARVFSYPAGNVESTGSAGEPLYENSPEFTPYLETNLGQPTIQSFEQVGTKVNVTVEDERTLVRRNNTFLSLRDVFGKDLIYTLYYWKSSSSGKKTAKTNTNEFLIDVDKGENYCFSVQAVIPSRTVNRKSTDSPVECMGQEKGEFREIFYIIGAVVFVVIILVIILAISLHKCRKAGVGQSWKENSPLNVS
Coagulation factor X, sequence (P00742 41-179 limits assumed): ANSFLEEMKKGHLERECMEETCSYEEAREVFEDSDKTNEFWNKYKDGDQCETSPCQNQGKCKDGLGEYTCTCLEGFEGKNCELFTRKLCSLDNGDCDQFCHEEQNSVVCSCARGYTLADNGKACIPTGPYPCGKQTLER
Coagulation factor X, sequence (P00742 235-488 limits assumed): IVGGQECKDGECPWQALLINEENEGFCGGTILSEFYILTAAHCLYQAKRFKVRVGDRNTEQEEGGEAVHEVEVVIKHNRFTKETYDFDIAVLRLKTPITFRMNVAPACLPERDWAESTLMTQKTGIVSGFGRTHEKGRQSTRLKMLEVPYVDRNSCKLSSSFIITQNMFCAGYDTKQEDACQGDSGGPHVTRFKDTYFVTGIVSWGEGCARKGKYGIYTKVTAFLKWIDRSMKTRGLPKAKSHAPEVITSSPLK

| Structure (SMILES) | IC50 (Coagulation factor X) [nM] | IC50 [1] [nM] | Concentration prolonging prothrombin time [2] [µM] |
| --- | --- | --- | --- |
| CC(C)CNC(=O)c1ccc(Oc2nc(Oc3cccc(C(=N)N)c3)c(F)c(NC(C)CCc3ccccc3)c2F)c(C(=O)O)c1 (stereo unspecified) | 9600 | 10 | 22 |
| CC(CCc1ccccc1)Nc1c(F)c(Oc2cccc(C(=N)N)c2)nc(Oc2ccc(C(C)(C)C)cc2C(=O)O)c1F (stereo unspecified) | 3300 | 21 | 24 |
| CCCOc1ccc(Oc2nc(Oc3cccc(C(=N)N)c3)c(F)c(NC(C)CCc3ccccc3)c2F)c(C(=O)O)c1 (stereo unspecified) | 26000 | 19 | 95 |
| CC(CCc1ccccc1)Nc1c(F)c(Oc2cccc(C(=N)N)c2)nc(Oc2ccc(N(C)C)cc2C(=O)O)c1F (stereo in doubt; 19) [listing 2 of 2 here] |  |  | 49 |
| CC(CCc1ccccc1)Nc1c(F)c(Oc2cccc(C(=N)N)c2)nc(Oc2ccc(C(=O)NC(CO)CO)cc2C(=O)O)c1F (stereo unspecified) | 13000 | 46 | 9 |
| CCN(CC)c1ccc(Oc2nc(Oc3cccc(C(=N)N)c3)c(F)c(NC(C)CCc3ccccc3)c2F)c(C(=O)O)c1 (stereo unspecified) | 9600 | 16 | 83 |
| CCC(CO)NC(=O)c1ccc(Oc2nc(Oc3cccc(C(=N)N)c3)c(F)c(NC(C)CCc3ccccc3)c2F)c(C(=O)O)c1 (stereo unspecified) | 5700 | 23 | 10 |
| CC(CCc1ccccc1)Nc1c(F)c(Oc2cccc(C(=N)N)c2)nc(Oc2ccc(OC(C)C)cc2C(=O)O)c1F (stereo unspecified) | 12000 | 17 | 52 |
| CCCCN(CCCC)c1ccc(Oc2nc(Oc3cccc(C(=N)N)c3)c(F)c(NC(C)CCc3ccccc3)c2F)c(C(=O)O)c1 (stereo unspecified) |  | 36 |  |
| Cc1c(F)c(Oc2cccc(C(=N)N)c2)nc(Oc2ccc(N(C)C)cc2C(=O)O)c1F |  | 190 |  |
| C[C@H](CCc1ccccc1)Nc1c(F)c(Oc2cccc(C(=N)N)c2)nc(Oc2ccccc2C(=O)O)c1F | 51000 | 45 | 29 |
| COc1cccc(CNC(=O)c2ccc(Oc3nc(Oc4cccc(C(=N)N)c4)c(F)c(NC(C)CCc4ccccc4)c3F)c(C(=O)O)c2)c1 (stereo unspecified) | 9500 | 8 | 53 |
| CC(CCc1ccccc1)Nc1c(F)c(Oc2cccc(C(=N)N)c2)nc(Oc2ccc(-c3ccccc3)cc2C(=O)O)c1F (stereo unspecified) | 17000 | 23 | 112 |
| Cc1c(F)c(Oc2cccc(C(=N)N)c2)nc(Oc2ccccc2C(=O)O)c1F | < 10000 | 1200 |  |
| CC(CCc1ccccc1)Nc1c(F)c(Oc2cccc(C(=N)N)c2)nc(Oc2ccc(N(C)C)cc2C(=O)O)c1F (stereo in doubt; 28) [listing 1 of 2 here] |  |  | 16 |
| CC(CCc1ccccc1)Nc1c(F)c(Oc2cccc(C(=N)N)c2)nc(Oc2ccc(C(=O)N[C@H](O)C(=O)O)cc2C(=O)O)c1F (stereo partly specified) |  | 730 |  |
| CC(CCc1ccccc1)Nc1c(F)c(Oc2cccc(C(=N)N)c2)nc(Oc2ccc(C(=O)NCc3ccc(O)c(O)c3)cc2C(=O)O)c1F (stereo unspecified) |  | 140 |  |
| CC(CCc1ccccc1)Nc1c(F)c(Oc2cccc(C(=N)N)c2)nc(Oc2ccccc2C(=O)O)c1F (stereo unspecified) | 55000 |  | 35 |
| CC(CCc1ccccc1)Nc1c(F)c(Oc2cccc(C(=N)N)c2)nc(Oc2ccc(C(=O)NC(C)C(C)(C)C)cc2C(=O)O)c1F (stereo unspecified) | 4300 | 14 | 15 |
| CC(CCc1ccccc1)Nc1c(F)c(Oc2cccc(C(=N)N)c2)nc(Oc2ccc(C(=O)NCCCO)cc2C(=O)O)c1F (stereo unspecified) |  | 71 | 12 |
| CC(CCc1ccccc1)Nc1c(F)c(Oc2cccc(C(=N)N)c2)nc(Oc2ccc(C(=O)NCc3cccc(O)c3)cc2C(=O)O)c1F (stereo unspecified) | 4100 | 39 | 49 |
| CC(CCc1ccccc1)Nc1c(F)c(Oc2cccc(C(=N)N)c2)nc(Oc2ccc(C(=O)NC(C)(C)CO)cc2C(=O)O)c1F (stereo unspecified) | 59000 | 16 | 11 |
| CC(CCc1ccccc1)Nc1c(F)c(Oc2cccc(C(=N)N)c2)nc(Oc2ccc(C(=O)NCCCCO)cc2C(=O)O)c1F (stereo unspecified) | 20000 | 67 | 16 |

More lines, main results first:

| IC50 (Coagulation factor X) [nM] | IC50 [1] [nM] | Structure (SMILES) | Concentration prolonging prothrombin time [2] [µM] |
| --- | --- | --- | --- |
| 6800 | 13 | CC(CCc1ccccc1)Nc1c(F)c(Oc2cccc(C(=N)N)c2)nc(Oc2ccc(N(C)C)cc2C(=O)O)c1F (stereo in doubt; 19) [listing 1 of 2 here] |  |
| 29000 | 20 | Cc1ccc(Oc2nc(Oc3cccc(C(=N)N)c3)c(F)c(NC(C)CCc3ccccc3)c2F)c(C(=O)O)c1 (stereo unspecified) |  |
| 11000 | 79 | CC(CCc1ccccc1)Nc1c(F)c(Oc2cccc(C(=N)N)c2)nc(Oc2ccc(N)cc2C(=O)O)c1F (stereo unspecified) |  |
|  | 200 | CC(CCc1ccccc1)Nc1c(F)c(Oc2cccc(C(=N)N)c2)nc(Oc2ccc(C(=O)O)cc2C(=O)O)c1F (stereo unspecified) |  |
| 8000 | 17 | CNc1ccc(Oc2nc(Oc3cccc(C(=N)N)c3)c(F)c(NC(C)CCc3ccccc3)c2F)c(C(=O)O)c1 (stereo unspecified) | 41 |
| 11000 | 39 | COc1ccc(Oc2nc(Oc3cccc(C(=N)N)c3)c(F)c(NC(C)CCc3ccccc3)c2F)c(C(=O)O)c1 (stereo unspecified) |  |
| 11000 | 560 | CC(CCc1ccccc1)Nc1c(F)c(Oc2cccc(C(=N)N)c2)nc(Oc2ccc(O)cc2C(=O)O)c1F (stereo unspecified) |  |
| 4500 | 15 | CC(CCc1ccccc1)Nc1c(F)c(Oc2cccc(C(=N)N)c2)nc(Oc2ccc(N(C)C)cc2C(=O)O)c1F (stereo in doubt; 28) [listing 2 of 2 here] |  |
| 17000 | 29 | CCOc1ccc(Oc2nc(Oc3cccc(C(=N)N)c3)c(F)c(NC(C)CCc3ccccc3)c2F)c(C(=O)O)c1 (stereo unspecified) | 94 |
| 4800 | 15 | CC(CCc1ccccc1)Nc1c(F)c(Oc2cccc(C(=N)N)c2)nc(Oc2ccc(C(C)C)cc2C(=O)O)c1F (stereo unspecified) | 28 |
